Key:
HEK293 = assay: Induction of VHL-mediated SGK3 degradation in HEK293 cells at 10 uM incubated for 48 hrs by immunoblot analysis relative to control; assay type: cell-based; details: Homo sapiens
[1] = molecular target: Protein cereblon/Tyrosine-protein kinase ABL1/Breakpoint cluster region protein (Homo sapiens) (UniProt P00519+P11274+Q96SW2); assay: Induction of CRBN-mediated BCR-ABL degradation in human K562 cells at 1 uM incubated for 24 hrs by Western blot analysis relative to control; assay type: cell-based
Sequence of Protein cereblon/Tyrosine-protein kinase ABL1/Breakpoint cluster region protein (Homo sapiens) (P00519 whole entry, looked up): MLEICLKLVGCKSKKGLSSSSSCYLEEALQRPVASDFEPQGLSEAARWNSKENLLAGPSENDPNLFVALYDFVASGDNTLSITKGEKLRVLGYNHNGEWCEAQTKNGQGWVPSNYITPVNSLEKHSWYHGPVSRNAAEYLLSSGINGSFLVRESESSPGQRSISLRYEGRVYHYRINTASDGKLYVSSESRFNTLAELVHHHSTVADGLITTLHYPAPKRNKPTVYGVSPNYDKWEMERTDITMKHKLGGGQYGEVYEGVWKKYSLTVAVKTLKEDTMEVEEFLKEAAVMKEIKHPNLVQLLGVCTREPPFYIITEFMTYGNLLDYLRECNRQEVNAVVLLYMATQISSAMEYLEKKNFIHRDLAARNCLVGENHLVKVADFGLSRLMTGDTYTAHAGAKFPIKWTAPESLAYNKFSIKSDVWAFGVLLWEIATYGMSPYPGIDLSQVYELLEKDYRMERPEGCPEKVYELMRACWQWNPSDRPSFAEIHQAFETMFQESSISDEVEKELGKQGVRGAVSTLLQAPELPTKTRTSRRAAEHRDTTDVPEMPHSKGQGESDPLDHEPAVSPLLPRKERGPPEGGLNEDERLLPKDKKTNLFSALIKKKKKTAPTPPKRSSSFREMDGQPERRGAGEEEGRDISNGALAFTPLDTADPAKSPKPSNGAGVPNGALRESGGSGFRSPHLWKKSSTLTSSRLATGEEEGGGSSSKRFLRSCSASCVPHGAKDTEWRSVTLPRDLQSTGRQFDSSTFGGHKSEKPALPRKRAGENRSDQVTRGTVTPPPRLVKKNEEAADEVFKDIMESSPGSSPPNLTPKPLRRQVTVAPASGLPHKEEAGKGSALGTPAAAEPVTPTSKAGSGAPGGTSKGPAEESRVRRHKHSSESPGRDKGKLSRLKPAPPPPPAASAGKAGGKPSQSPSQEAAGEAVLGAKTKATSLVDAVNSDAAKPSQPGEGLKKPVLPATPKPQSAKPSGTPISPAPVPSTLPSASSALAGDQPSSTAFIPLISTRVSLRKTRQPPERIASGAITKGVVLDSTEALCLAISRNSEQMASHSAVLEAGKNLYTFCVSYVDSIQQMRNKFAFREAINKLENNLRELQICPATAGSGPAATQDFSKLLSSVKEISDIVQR
Sequence of Protein cereblon/Tyrosine-protein kinase ABL1/Breakpoint cluster region protein (Homo sapiens) (P11274 whole entry, looked up): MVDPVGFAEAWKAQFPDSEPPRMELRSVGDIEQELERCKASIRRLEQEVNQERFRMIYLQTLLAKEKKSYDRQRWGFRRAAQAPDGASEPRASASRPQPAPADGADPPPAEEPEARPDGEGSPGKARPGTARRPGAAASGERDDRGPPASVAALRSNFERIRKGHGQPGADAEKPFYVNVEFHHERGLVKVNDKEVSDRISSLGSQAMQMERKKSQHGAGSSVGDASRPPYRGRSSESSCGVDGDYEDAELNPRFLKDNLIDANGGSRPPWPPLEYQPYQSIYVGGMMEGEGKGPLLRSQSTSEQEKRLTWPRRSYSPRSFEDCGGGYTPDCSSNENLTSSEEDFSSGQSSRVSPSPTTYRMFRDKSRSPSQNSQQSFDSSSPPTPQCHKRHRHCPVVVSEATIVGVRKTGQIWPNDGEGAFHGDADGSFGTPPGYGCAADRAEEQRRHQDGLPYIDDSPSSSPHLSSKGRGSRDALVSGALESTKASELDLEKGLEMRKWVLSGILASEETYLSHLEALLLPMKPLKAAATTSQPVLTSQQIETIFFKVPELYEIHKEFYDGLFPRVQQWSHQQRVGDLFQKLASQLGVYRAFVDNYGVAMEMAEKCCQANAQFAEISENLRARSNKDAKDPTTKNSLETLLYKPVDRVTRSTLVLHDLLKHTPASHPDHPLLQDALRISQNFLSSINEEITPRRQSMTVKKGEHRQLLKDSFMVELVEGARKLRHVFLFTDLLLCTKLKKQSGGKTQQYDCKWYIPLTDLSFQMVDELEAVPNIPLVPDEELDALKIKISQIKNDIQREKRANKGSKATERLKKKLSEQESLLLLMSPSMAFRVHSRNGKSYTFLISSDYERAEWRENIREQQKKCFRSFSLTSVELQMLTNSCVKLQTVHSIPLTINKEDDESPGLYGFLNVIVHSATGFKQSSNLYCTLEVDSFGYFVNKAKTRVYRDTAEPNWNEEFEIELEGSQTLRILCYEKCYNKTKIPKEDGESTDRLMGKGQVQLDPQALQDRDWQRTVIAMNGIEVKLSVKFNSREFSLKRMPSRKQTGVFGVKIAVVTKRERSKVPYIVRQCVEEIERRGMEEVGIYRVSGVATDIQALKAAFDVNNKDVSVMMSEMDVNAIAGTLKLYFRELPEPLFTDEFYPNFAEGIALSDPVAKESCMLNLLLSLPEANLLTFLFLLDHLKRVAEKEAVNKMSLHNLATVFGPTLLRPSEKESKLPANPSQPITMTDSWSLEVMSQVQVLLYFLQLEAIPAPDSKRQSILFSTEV
Sequence of Protein cereblon/Tyrosine-protein kinase ABL1/Breakpoint cluster region protein (Homo sapiens) (Q96SW2 whole entry, looked up): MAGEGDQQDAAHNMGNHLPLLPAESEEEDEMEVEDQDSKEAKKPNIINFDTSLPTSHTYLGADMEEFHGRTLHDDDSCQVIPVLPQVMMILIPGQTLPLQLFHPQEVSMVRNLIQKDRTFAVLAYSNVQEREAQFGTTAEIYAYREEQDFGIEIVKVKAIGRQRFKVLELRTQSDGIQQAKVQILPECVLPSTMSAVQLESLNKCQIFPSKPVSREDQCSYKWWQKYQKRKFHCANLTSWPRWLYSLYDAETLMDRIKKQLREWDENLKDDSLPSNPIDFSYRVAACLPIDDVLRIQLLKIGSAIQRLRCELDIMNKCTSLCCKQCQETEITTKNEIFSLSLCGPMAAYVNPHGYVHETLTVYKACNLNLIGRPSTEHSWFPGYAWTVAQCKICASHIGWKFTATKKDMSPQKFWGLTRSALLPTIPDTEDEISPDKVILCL

With Cc1ccc(F)c(S(=O)(=O)Nc2ccc(-c3nc(OC[C@H]4CN(CCOCCOCCOCCOCCOCC(=O)N[C@H](C(=O)N5C[C@H](O)C[C@H]5C(=O)NCc5ccc(-c6scnc6C)cc5)C(C)(C)C)CCO4)c4cn[nH]c4n3)cc2)c1 the Activity (HEK293) was > 50%.

For Cc1ccc(F)c(S(=O)(=O)Nc2ccc(-c3nc(OC[C@H]4CN(CCOCCOCC(=O)N[C@H](C(=O)N5C[C@H](O)C[C@H]5C(=O)NCc5ccc(-c6scnc6C)cc5)C(C)(C)C)CCO4)c4cn[nH]c4n3)cc2)c1, the Activity (HEK293) was > 50%.

With COc1ccc(Cl)c(S(=O)(=O)Nc2ccc(-c3nc(OC[C@H]4CN(CCCCCCOCCOCCOCCOCC(=O)N[C@H](C(=O)N5C[C@H](O)C[C@H]5C(=O)NCc5ccc(-c6scnc6C)cc5)C(C)(C)C)CCO4)c4c(C)n[nH]c4n3)cc2)c1 the Activity (HEK293) was > 50%.

In the case of Cc1ccc(F)c(S(=O)(=O)Nc2ccc(-c3nc(OC[C@H]4CN(CCCCCCOCCCCCCOCC(=O)N[C@H](C(=O)N5C[C@H](O)C[C@H]5C(=O)NCc5ccc(-c6scnc6C)cc5)C(C)(C)C)CCO4)c4cn[nH]c4n3)cc2)c1, the Activity (HEK293) is reported as > 50%.

With Cc1ccc(F)c(S(=O)(=O)Nc2ccc(-c3nc(OC[C@H]4CN(CCOCCOCCOCCOCC(=O)N[C@H](C(=O)N5C[C@H](O)C[C@H]5C(=O)NCc5ccc(-c6scnc6C)cc5)C(C)(C)C)CCO4)c4cn[nH]c4n3)cc2)c1 the Activity (HEK293) was > 50%.

With Cc1ccc(F)c(S(=O)(=O)Nc2ccc(-c3nc(OC[C@H]4CN(CCCCCCOCCOCCOCCOCC(=O)N[C@H](C(=O)N5C[C@H](O)C[C@H]5C(=O)NCc5ccc(-c6scnc6C)cc5)C(C)(C)C)CCO4)c4cn[nH]c4n3)cc2)c1 the Activity (HEK293) was > 50%.

In the case of Cc1ccc(F)c(S(=O)(=O)Nc2ccc(-c3nc(OC[C@H]4CN(CCOCCOCCOCC(=O)N[C@H](C(=O)N5C[C@H](O)C[C@H]5C(=O)NCc5ccc(-c6scnc6C)cc5)C(C)(C)C)CCO4)c4cn[nH]c4n3)cc2)c1, the Activity (HEK293) is reported as > 50%.

Cc1nc(Nc2ncc(C(=O)Nc3c(C)cccc3Cl)s2)cc(N2CCN(CCCCCCOCCOCCOCCCCCC(=O)Nc3cccc4c3C(=O)N(C3CCC(=O)NC3=O)C4=O)CC2)n1 (stereo not given) was tested, and the Activity [1] was > 60%.

COc1ccc(Cl)c(S(=O)(=O)Nc2ccc(-c3nc(OC[C@H]4CN(CCCCCCOCCCCCCOCC(=O)N[C@H](C(=O)N5C[C@H](O)C[C@H]5C(=O)NCc5ccc(-c6scnc6C)cc5)C(C)(C)C)CCO4)c4c(C)n[nH]c4n3)cc2)c1 was tested, and the Activity (HEK293) was > 50%.

Cc1ccc(F)c(S(=O)(=O)Nc2ccc(-c3nc(OC[C@H]4CN(CCCCCCOCCOCCOCC(=O)N[C@H](C(=O)N5C[C@H](O)C[C@H]5C(=O)NCc5ccc(-c6scnc6C)cc5)C(C)(C)C)CCO4)c4cn[nH]c4n3)cc2)c1 was tested, and the Activity (HEK293) was > 50%.

Source: ChEMBL document CHEMBL4765444, “Chimera induced protein degradation: PROTACs and beyond” (Eur J Med Chem, 2020)
